From US10399958B2, “PPAR agonists, compounds, pharmaceutical compositions, and methods of use thereof” (Mitobridge, Inc., priority 2015, dated 2019)
Like-named read-outs stand apart in the source and are kept apart here.

What was measured:
[1] = Pharmacokinetic (PK) screening (i.v.) in male CD1 mice; format: in vivo, mouse; conditions: for clearance: male, CD1, mouse, plasma, iv
Method: In this example, the intravenous PK profile of several PPARδ agonists disclosed herein in male CD1 mice was determined. Similar methods can be used to analyze other compounds provided herein. All compounds were administered separately to CD1 mice at 1 mg/kg (i.v.), except the comparator compound to 2c was administered at 3 mg/kg (i.v.), as noted below.

PPAR delta = PPAR delta (Homo sapiens (Human), UniProt Q03181); experiment: PPARδ activity screen: GAL4-PPARδ LBD transactivation luciferase reporter in CV-1 cells; format: cell-based
Method: CV-1 cells were grown in DMEM+10% charcoal stripped FCS. Cells were seeded into 384-well plates the day before transfection to give a confluency of 50-80% at transfection. A total of […] containing 0.64 micrograms pCMX-PPARDelta LBD, 0.1 micrograms pCMXβGal, 0.08 micrograms pGLMH2004 reporter and 0.02 micrograms pCMX empty vector was transfected per well using FuGene transfection reagent according to the manufacturer's instructions (Roche). Cells were allowed to express protein for 48 h followed by addition of compound.
Human PPARδ was used to PCR amplify the PPARδ LBD. […] Ensuing fusions were verified by sequencing.
All compounds were dissolved in DMSO and diluted 1:1000 upon addition to the cells. Compounds were tested in quadruple in concentrations ranging from 0.001 to 100 μM. Cells were treated with compound for 24 h followed by luciferase assay. Each compound was tested in at least two separate experiments.
Medium including test compound was aspirated and washed with PBS. 50 μl PBS including 1 mM Mg++ and Ca++ were then added to each well. The luciferase assay was performed using the LucLite kit according to the manufacturer's instructions (Packard Instruments). Light emission was quantified by counting on a Perkin Elmer Envision reader. […] Beta-galactosidase assays were performed in the microwell plates using a kit from Promega and read in a Perkin Elmer Envision reader. The beta-galactosidase data were used to normalize (transfection efficiency, cell growth etc.) the luciferase data.
The activity of a compound is calculated as fold induction compared to an untreated sample. For each compound the efficacy (maximal activity) is given as a relative activity compared to GW501516, a PPARδ agonist. […] EC50 values were calculated via non-linear regression usingGraphPad PRISM (GraphPad Software, San Diego, Calif.).

[2] = tested on: Sprague-Dawley rat acute kidney injury; experiment: Ischemia-reperfusion kidney injury in rats, plasma creatinine; format: in vivo; conditions: 30 mg/kg orally 4 hours after surgery, blood 24 hours after reperfusion, FIG. 11
Method: Sprague-Dawley male rats approximately 280-300 g, with ad libitum access to standard feed and water were used in these experiments. Rats were anesthetized with isoflurane and placed ventrally on a temperature controlled heated surgical platform. A skin incision was made on the dorsal surface, exposing both kidneys through flank incisions. Vascular clips were applied to both renal pedicles and occlusion lasted 45 minutes. After 45 min, the clips were removed, kidneys were monitored for successful reperfusion, and surgical sites were sutured. The sham group was subjected to similar surgical procedures, except that the occluding clamps were not applied. Four independent studies, testing each compound were performed. Compounds were formulated as a fresh daily suspension in 0.25% sodium carboxymethyl-cellulose, 0.25% Tween-80 in purified water. Compounds were dosed orally at 30 mg/kg 4 hours after animals awoke from surgery and sham surgery and IRI control animals were similarly dosed with vehicle.
Twenty-four (24) hours after reperfusion, blood was collected in K2 EDTA tubes by retro-orbital bleeding from all groups under mild isoflurane anesthesia. Plasma was separated by centrifugation at 3000 rpm for 10 minutes at 4° C. Plasma creatinine was analyzed using a fully automated clinical biochemistry analyzer (Siemens Dimension® Xpand® Plus Integrated Chemistry System)
Creatinine was tested for normal distribution in all groups via a D'Agostino-Pearson omnibus normality test and a Shapiro-Wilk normality test. Normally distributed data was subjected to an unpaired, two-tailed t test. Non-normally distributed data was subjected to a Mann-Whitney test (non-parametric). Statistical significance is determined by p<0.05 of IRI-vehicle compared to compound treated groups.

[3] = 1 mg/kg, I.V. 1 mg/kg dose, read-out: CL
[4] = 1 mg/kg, I.V. 1 mg/kg dose, read-out: High or Low CL
[5] = CV-1 cells, 24 h compound treatment, luciferase, read-out: PPAR delta transactivation EC50

PPAR delta, sequence (Q03181 128-441 limits assumed): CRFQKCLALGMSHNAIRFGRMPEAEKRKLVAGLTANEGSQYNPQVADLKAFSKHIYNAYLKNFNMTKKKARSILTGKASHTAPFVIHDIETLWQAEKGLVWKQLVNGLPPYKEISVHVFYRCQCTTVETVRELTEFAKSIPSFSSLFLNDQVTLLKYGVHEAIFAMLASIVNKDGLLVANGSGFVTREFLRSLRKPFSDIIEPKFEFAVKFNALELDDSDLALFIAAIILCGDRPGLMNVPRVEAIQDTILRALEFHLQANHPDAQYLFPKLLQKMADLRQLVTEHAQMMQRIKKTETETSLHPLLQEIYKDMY

## C/C(=C\COc1ccccc1Cn1c(C)cnc1-c1ccc(OC(F)(F)F)cc1)CCC(=O)O [Compound 2e, (E)-4-methyl-6-(2-((5-methyl-2-(4-(trifluoromethoxy)phenyl)-1H-imidazol-1-yl)methyl)phenoxy)hex-4-enoic acid]
[1]; [3]
  clearance: 70 mL/min/kg
[1]; [4]
  clearance: < 85 mL/min/kg
PPAR delta; [5]
  EC50: 0.2 nM

## Cc1cnc(-c2ccc(C(F)(F)F)cc2)n1Cc1cc(F)ccc1OCCC[C@@H](C)CC(=O)O [Compound 2k, (R)-6-(4-fluoro-2-((5-methyl-2-(4-(trifluoromethyl)phenyl)-1H-imidazol-1-yl)methyl)phenoxy)-3-methylhexanoic acid]
[1]; [3]
  clearance: 17 mL/min/kg
[1]; [4]
  clearance: < 85 mL/min/kg
PPAR delta; [5]
  EC50: 6.6 nM

## Cc1cnc(-c2ccc(C(F)(F)F)nc2)n1Cc1ccccc1OCCC[C@@H](C)CC(=O)O [Compound 2n, (R)-3-methyl-6-(2-((5-methyl-2-(6-(trifluoromethyl)pyridin-3-yl)-1H-imidazol-1-yl)methyl)phenoxy)hexanoic acid]
[1]; [3]
  clearance: 62 mL/min/kg
[1]; [4]
  clearance: < 85 mL/min/kg
[2]
  Plasma creatinine: reduce plasma creatinine

## Cc1cnc(-c2ccc(OC(F)(F)F)cc2)n1Cc1ccccc1OCCC[C@@H](C)CC(=O)O [Compound 2a, (R)-3-methyl-6-(2-((5-methyl-2-(4-(trifluoromethoxy)phenyl)-1H-imidazol-1-yl)methyl)phenoxy)hexanoic acid]
[1]; [3]
  clearance: 33 mL/min/kg
[1]; [4]
  clearance: < 85 mL/min/kg
[2]
  Plasma creatinine: reduce plasma creatinine
PPAR delta
  EC50: 1 nM

## Cc1cnc(-c2ccc(OC(F)(F)F)cc2)n1Cc1ccccc1OCCCCCC(=O)O [comparator compound to 2e, reference compound]
[1]; [3]
  clearance: 185 mL/min/kg
[1]; [4]
  clearance: > 85 mL/min/kg

## Cc1cnc(-c2ccc(Cl)c(F)c2)n1Cc1ccccc1OCCC[C@@H](C)CC(=O)O [Compound 2j, (R)-6-(2-((2-(4-chloro-3-fluorophenyl)-5-methyl-1H-imidazol-1-yl)methyl)phenoxy)-3-methylhexanoic acid]
[1]; [3]
  clearance: 38 mL/min/kg
[1]; [4]
  clearance: < 85 mL/min/kg
PPAR delta; [5]
  EC50: 0.8 nM

## Cc1cnc(-c2ccc(Cl)cc2)n1Cc1ccccc1OCCC[C@@H](C)CC(=O)O [Compound 2b, (R)-6-(2-((2-(4-chlorophenyl)-5-methyl-1H-imidazol-1-yl)methyl)phenoxy)-3-methylhexanoic acid]
[1]; [3]
  clearance: 22 mL/min/kg
[1]; [4]
  clearance: < 85 mL/min/kg
PPAR delta
  EC50: 7.8 nM

## CSc1ccc(-c2ncc(C)n2Cc2ccccc2OCCC[C@@H](C)CC(=O)O)cc1 [Compound 2p, (R)-3-methyl-6-(2-((5-methyl-2-(4-(methylthio)phenyl)-1H-imidazol-1-yl)methyl)phenoxy)hexanoic acid]
PPAR delta; [5]
  EC50: 13.1 nM

## Cc1ccc(-c2ncc(C)n2Cc2ccccc2OCCC[C@@H](C)CC(=O)O)cc1 [Compound 2f, (R)-3-methyl-6-(2-((5-methyl-2-(p-tolyl)-1H-imidazol-1-yl)methyl)phenoxy) hexanoic acid]
PPAR delta
  EC50: 24.3 nM

## Cc1cnc(-c2ccc(F)cc2)n1Cc1ccccc1OCCC[C@@H](C)CC(=O)O [Compound 2g, (R)-6-(2-((2-(4-fluorophenyl)-5-methyl-1H-imidazol-1-yl)methyl)phenoxy)-3-methylhexanoic acid]
PPAR delta; [5]
  EC50: 39 nM

## Cc1cnc(-c2ccc(C(F)(F)F)nc2)n1Cc1ccccc1OCCCCCC(=O)O [Comparator Compound 2, reference compound]
PPAR delta; [5]
  EC50: 3.8 nM

## Cc1cnc(-c2ccc(-c3ccco3)cc2)n1Cc1ccccc1OCCC[C@@H](C)CC(=O)O [Compound 2c, (R)-6-(2-((2-(4-(furan-2-yl)phenyl)-5-methyl-1H-imidazol-1-yl)methyl)phenoxy)-3-methylhexanoic acid]
[1]; [3]
  clearance: 73 mL/min/kg
[1]; [4]
  clearance: < 85 mL/min/kg
PPAR delta; [5]
  EC50: 3.7 nM

## Cc1cnc(-c2ccc(C(F)F)cc2)n1Cc1ccccc1OCCC[C@@H](C)CC(=O)O [Compound 2o, (R)-6-(2-((2-(4-(difluoromethyl)phenyl)-5-methyl-1H-imidazol-1-yl)methyl)phenoxy)-3-methylhexanoic acid]
PPAR delta; [5]
  EC50: 9.9 nM

## Cc1cnc(-c2ccc(C(F)(F)F)c(F)c2)n1Cc1ccccc1OCCCCC(C)(C)C(=O)O [Compound 2h, 6-(2-((2-(3-fluoro-4-(trifluoromethyl)phenyl)-5-methyl-1H-imidazol-1-yl)methyl)phenoxy)-2,2-dimethylhexanoic acid]
[1]; [3]
  clearance: 25 mL/min/kg
[1]; [4]
  clearance: < 85 mL/min/kg
PPAR delta; [5]
  EC50: 3.5 nM

## Cc1cnc(-c2ccc(-c3ccco3)cc2)n1Cc1ccccc1OCCCCCC(=O)O [comparator compound to 2c, reference compound]
[1]; 3 mg/kg, 3 mg/kg i.v. dose, read-out: CL
  clearance: 270 mL/min/kg
[1]; 3 mg/kg, 3 mg/kg i.v. dose, read-out: High or Low CL
  clearance: > 85 mL/min/kg

## Cc1cnc(-c2ccc(C(F)(F)F)cc2)n1Cc1ccccc1OCCCCCC(=O)O [Comparator Compound 1, reference compound]
PPAR delta; [5]
  EC50: 0.1 nM

## Cc1cnc(-c2ccc(Cl)c(F)c2)n1Cc1ccccc1OCCCCC(C)(C)C(=O)O [Compound 2i, 6-(2-((2-(4-chloro-3-fluorophenyl)-5-methyl-1H-imidazol-1-yl)methyl)-phenoxy)-2,2-dimethylhexanoic acid]
PPAR delta; [5]
  EC50: 18.8 nM

## Cc1cnc(-c2ccc(C(F)(F)F)cc2)n1Cc1ccccc1OCCCCCC(=O)O [comparator compound to 2d, reference compound]
[1]; I.V. 1 mg/kg dose
  CL / exposure after i.v. dose (result in words): Due to low exposure data could not be measured

## Cc1cnc(-c2ccc(OC(F)F)cc2)n1Cc1ccccc1OCCC[C@@H](C)CC(=O)O [Compound 2l, (R)-6-(2-((2-(4-(difluoromethoxy)phenyl)-5-methyl-1H-imidazol-1-yl)methyl)phenoxy)-3-methylhexanoic acid]
PPAR delta; [5]
  EC50: 13.5 nM

## Cc1cnc(-c2ccc(C(F)(F)F)cc2)n1Cc1ccccc1OCCCCC(C)(C)C(=O)O [Compound 2q, 2,2-dimethyl-6-(2-((5-methyl-2-(4-(trifluoromethyl)phenyl)-1H-imidazol-1-yl)methyl)phenoxy)hexanoic acid]
[1]; [3]
  clearance: 11 mL/min/kg
[1]; [4]
  clearance: < 85 mL/min/kg
PPAR delta; [5]
  EC50: 14.3 nM

## Cc1ccc(OCCC[C@@H](C)CC(=O)O)c(Cn2c(C)cnc2-c2ccc(OC(F)(F)F)cc2)c1 [Compound 2m, (R)-3-methyl-6-(4-methyl-2-((5-methyl-2-(4-(trifluoromethoxy)phenyl)-1H-imidazol-1-yl)methyl)phenoxy)hexanoic acid]
[1]; [3]
  clearance: 85 mL/min/kg
[1]; [4]
  clearance: < 85 mL/min/kg
PPAR delta; [5]
  EC50: 0.5 nM

## Cc1cnc(-c2ccc(C(F)(F)F)nc2)n1Cc1ccccc1OCCCCCC(=O)O [comparator compound to 2n, reference compound]
[1]; I.V. 1 mg/kg dose
  CL / exposure after i.v. dose (result in words): Due to low exposure data could not be measured
